From paper PMC4674339 (European journal of medicinal chemistry, 2015)
Like-named read-outs stand apart in the source and are kept apart here.

What was measured:
[1] = tested on: ADP induced human platelet aggregation; experiment: ADP-induced human platelet aggregation, 96-well microplate method; assay type: cell-based
P2Y1 = conditions: read-out: EC50 toward P2Y1; functional assay; cited from earlier work
P2Y12 = conditions: read-out: EC50 toward P2Y12; functional assay; cited from earlier work
platelet P2X1 receptors [2] = molecular target: T1, platelet P2X1 receptors (Homo sapiens, UniProt P51575); experiment: P2X1-mediated entry of extracellular Ca2+; assay type: cell-based
T1 sequence (P51575 1-399): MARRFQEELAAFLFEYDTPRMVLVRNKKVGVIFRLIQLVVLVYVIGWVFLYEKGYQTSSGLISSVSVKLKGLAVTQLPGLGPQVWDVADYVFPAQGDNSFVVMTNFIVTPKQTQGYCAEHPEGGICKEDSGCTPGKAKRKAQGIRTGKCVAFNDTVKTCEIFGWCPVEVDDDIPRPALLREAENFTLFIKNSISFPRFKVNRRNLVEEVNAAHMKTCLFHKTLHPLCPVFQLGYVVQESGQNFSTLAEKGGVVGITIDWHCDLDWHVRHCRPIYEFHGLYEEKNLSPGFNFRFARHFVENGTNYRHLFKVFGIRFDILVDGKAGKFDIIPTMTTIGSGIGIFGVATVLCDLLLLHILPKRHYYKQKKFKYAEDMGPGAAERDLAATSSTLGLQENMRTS

[3] = molecular target: T2, human platelet P2Y12 receptors (Homo sapiens, UniProt Q9H244); experiment: P2Y12-mediated VASP phosphorylation assay; assay type: cell-based
[4] = molecular target: human platelet P2Y1 receptors (Homo sapiens, UniProt P47900); conditions: read-out: P2Y1 inhibition IC50; cited from earlier work
[5] = molecular target: T2, human platelet P2Y12 receptors; conditions: cited from earlier work
platelet P2X1 receptors [6] = molecular target: T1, platelet P2X1 receptors; conditions: cited from earlier work
[7] = read-out: IC50, nM (95% Confidence Interval), no pre-incubation, 3 μM ADP
[8] = read-out: IC50, nM (95% Confidence Interval), pre-incubation with test compound, 5 μM ADP
[9] = read-out: IC50, nM (95% Confidence Interval), pre-incubation with test compound, 20 μM ADP

T2 sequence (Q9H244 whole entry): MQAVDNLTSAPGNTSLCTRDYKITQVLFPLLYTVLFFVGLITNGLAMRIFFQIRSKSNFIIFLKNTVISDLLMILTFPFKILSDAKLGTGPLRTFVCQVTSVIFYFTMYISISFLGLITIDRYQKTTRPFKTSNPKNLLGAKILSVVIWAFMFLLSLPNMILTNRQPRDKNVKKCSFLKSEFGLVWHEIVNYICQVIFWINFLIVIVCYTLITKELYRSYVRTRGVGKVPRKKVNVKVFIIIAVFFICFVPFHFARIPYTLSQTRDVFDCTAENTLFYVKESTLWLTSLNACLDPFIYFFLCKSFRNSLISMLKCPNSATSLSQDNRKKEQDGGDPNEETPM
Chain of human platelet P2Y1 receptors (P47900 whole entry): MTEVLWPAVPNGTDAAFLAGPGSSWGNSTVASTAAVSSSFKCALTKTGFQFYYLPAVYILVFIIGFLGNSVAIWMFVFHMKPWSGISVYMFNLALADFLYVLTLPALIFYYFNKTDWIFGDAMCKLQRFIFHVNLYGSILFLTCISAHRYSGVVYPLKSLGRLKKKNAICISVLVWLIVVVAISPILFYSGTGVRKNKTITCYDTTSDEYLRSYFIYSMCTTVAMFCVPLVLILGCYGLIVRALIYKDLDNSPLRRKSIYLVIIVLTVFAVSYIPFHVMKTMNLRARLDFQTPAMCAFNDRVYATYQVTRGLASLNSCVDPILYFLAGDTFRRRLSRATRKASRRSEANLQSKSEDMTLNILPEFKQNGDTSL

`CSc1nc(N)c2ncn([C@@H]3O[C@H](COP(=O)(O)OP(=O)(O)C(Cl)P(=O)(O)OP(=O)(O)OC[C@H]4O[C@@H](n5cnc6c(N)nc(SC)nc65)[C@H](O)[C@@H]4O)[C@@H](O)[C@H]3O)c2n1` (some centres unmarked) [Compound 4, P^1,P^4-di-(2-methylthio-5′-adenosine) P^2,P^3-chloromethylenetetraphosphate] gave an IC50 [1, 7] of 33.1 nM, an IC50 [1, 8] of 8.89 nM and an IC50 [1, 9] of 32.6 nM.

With `Nc1nc(Br)nc2c1ncn2[C@@H]1O[C@H](COP(=O)(S)OP(=O)(O)C(Cl)P(=O)(O)OP(=O)(S)OC[C@H]2O[C@@H](n3cnc4c(N)nc(Br)nc43)[C@H](O)[C@@H]2O)[C@@H](O)[C@H]1O` (mixture of isomers) [Compound 11, P^1,P^4-di-(2-bromo-5′-adenosine) P^1,P^4-dithio-P^2,P^3-chloromethylenetetra-phosphate] the IC50 [1, 7] was 87.8 nM, the IC50 [1, 8] was 173 nM and the IC50 [1, 9] was 936 nM.

In the case of “2-methylthioadenosine 5′-diphosphate [Compound 2-MeSADP]”, the EC50 (P2Y1) is given as 6 nM and the EC50 (P2Y12) is given as 0.3 nM.

With `CCCSc1nc(N)c2ncn([C@@H]3O[C@H](COP(=O)(S)OP(=O)(O)C(Cl)P(=O)(O)OP(=O)(S)OC[C@H]4O[C@@H](n5cnc6c(N)nc(SCCC)nc65)[C@H](O)[C@@H]4O)[C@@H](O)[C@H]3O)c2n1` (mixture of isomers) [Compound 7, P^1,P^4-di-(2-propylthio-5′-adenosine) P^1,P^4-dithio-P^2,P^3-chloromethylenetetraphosphate] the IC50 [1, 7] was 113 nM, the IC50 [1, 8] was 23.4 nM and the IC50 [1, 9] was 44.6 nM.

Work on `CCSc1nc(N)c2ncn([C@@H]3O[C@H](COP(=O)(S)OP(=O)(O)C(Cl)P(=O)(O)OP(=O)(S)OC[C@H]4O[C@@H](n5cnc6c(N)nc(SCC)nc65)[C@H](O)[C@@H]4O)[C@@H](O)[C@H]3O)c2n1` (mixture of isomers) [Compound 6, P^1,P^4-di-(2-ethylthio-5′-adenosine) P^1,P^4-dithio-P^2,P^3-chloromethylenetetraphosphate] yielded an IC50 [1, 7] of 46.1 nM, an IC50 [1, 8] of 8.48 nM and an IC50 [1, 9] of 13.4 nM.

`CCCCCSc1nc(N)c2ncn([C@@H]3O[C@H](COP(=O)(S)OP(=O)(O)C(Cl)P(=O)(O)OP(=O)(S)OC[C@H]4O[C@@H](n5cnc6c(N)nc(SCCCCC)nc65)[C@H](O)[C@@H]4O)[C@@H](O)[C@H]3O)c2n1` (mixture of isomers) [Compound 9, P^1,P^4-di-(2-pentylthio-5′-adenosine) P^1,P^4-dithio-P^2,P^3-chloromethylenetetraphosphate] showed an IC50 [1, 7] of 1090 nM, an IC50 [1, 8] of 90.7 nM and an IC50 [1, 9] of 172 nM.

With `Nc1nc(SCCC(F)(F)F)nc2c1ncn2[C@@H]1O[C@H](COP(=O)(S)OP(=O)(O)C(Cl)P(=O)(O)OP(=O)(S)OC[C@H]2O[C@@H](n3cnc4c(N)nc(SCCC(F)(F)F)nc43)[C@H](O)[C@@H]2O)[C@@H](O)[C@H]1O` (mixture of isomers) [Compound 8, P^1,P^4-di-(2-(3,3,3-trifluoropropylthylthio)-5′-adenosine) P^1,P^4-dithio-P^2,P^3-chloromethylenetetraphosphate] the IC50 [1, 7] was 144 nM, the IC50 [1, 8] was 15 nM and the IC50 [1, 9] was 26.6 nM.

In the case of `Nc1ncnc2c1ncn2[C@@H]1O[C@H](COP(=O)(O)OP(=O)(O)O)[C@@H](O)[C@H]1O` [ADP, adenosine diphosphate], the EC50 (P2Y1) is given as 8000 nM and the EC50 (P2Y12) is given as 69 nM.

For `Nc1nc(Cl)nc2c1ncn2[C@@H]1O[C@H](COP(=O)(S)OP(=O)(O)C(Cl)P(=O)(O)OP(=O)(S)OC[C@H]2O[C@@H](n3cnc4c(N)nc(Cl)nc43)[C@H](O)[C@@H]2O)[C@@H](O)[C@H]1O` (mixture of isomers) [Compound 10, P^1,P^4-di-(2-chloro-5′-adenosine) P^1,P^4-dithio-P^2,P^3-chloromethylenetetra-phosphate], the IC50 [1, 7] was 140 nM, the IC50 [1, 8] was 369 nM and the IC50 [1, 9] was 2690 nM.

For `CNc1nc(SC)nc2c1ncn2[C@@H]1O[C@H](COP(=O)([S-])OP(=O)([O-])C(Cl)P(=O)([O-])OP(=O)([S-])OC[C@H]2O[C@@H](n3cnc4c(NC)nc(SC)nc43)[C@H](O)[C@@H]2O)[C@@H](O)[C@H]1O.[Na+].[Na+].[Na+].[Na+]` (mixture of isomers) [Compound 15, P^1,P^4-di-(2-methylthio-N^6-methyl-5′-adenosine) P^1,P^4-dithio-P^2,P^3-chloromethylenetetraphosphate], the IC50 [1, 7] was 616 nM and the “P2X1 agonist activity” value (platelet P2X1 receptors [2]) was “effective P2X1 agonist”.

`CSc1nc(N)c2ncn([C@@H]3O[C@H](COP(=O)(S)OP(=O)(O)OP(=O)(O)OP(=O)(S)OC[C@H]4O[C@@H](n5cnc6c(N)nc(SC)nc65)[C@H](O)[C@@H]4O)[C@@H](O)[C@H]3O)c2n1` (mixture of isomers) [Compound 3, P^1,P^4-di-(2-methylthio-5′-adenosine) P^1,P^4-dithiotetraphosphate] showed an IC50 [1, 7] of 61.8 nM, an IC50 [1, 8] of 70.3 nM and an IC50 [1, 9] of 731 nM.

Molecule `CSc1nc(N)c2ncn([C@@H]3O[C@H](COP(=O)(S)OP(=O)(O)C(Cl)(Cl)P(=O)(O)OP(=O)(S)OC[C@H]4O[C@@H](n5cnc6c(N)nc(SC)nc65)[C@H](O)[C@@H]4O)[C@@H](O)[C@H]3O)c2n1` (mixture of isomers) [Compound 16, P^1,P^4-di-(2-methylthio-5′-adenosine) P^1,P^4-dithio-P^2,P^3-dichloromethylenetetraphosphate] has an IC50 [1, 7] of 295 nM.

With `CNc1ncnc2c1ncn2[C@@H]1O[C@H](COP(=O)(S)OP(=O)(O)C(Cl)P(=O)(O)OP(=O)(S)OC[C@H]2O[C@@H](n3cnc4c(NC)ncnc43)[C@H](O)[C@@H]2O)[C@@H](O)[C@H]1O` (mixture of isomers) [Compound 13, P^1,P^4-di-(N^6-methyl-5′-adenosine) P^1,P^4-dithio-P^2,P^3-chloromethylenetetraphosphate] the IC50 [1, 7] was 5870 nM, the IC50 [1, 8] was 10700 nM and the IC50 [1, 9] was 37200 nM.

For `CNc1ncnc2c1ncn2[C@H]1C[C@H](OP(=O)(O)O)[C@@H](COP(=O)(O)O)O1` [MRS2179, reference compound], the “P2Y12 inhibition IC50±SEM” value ([3]; 3 μM ADP, VASP phosphorylation, human blood) was “Not inhibitor”.

With `CCCNc1ncnc2c1ncn2[C@@H]1O[C@H](COP(=O)(S)OP(=O)(O)C(Cl)P(=O)(O)OP(=O)(S)OC[C@H]2O[C@@H](n3cnc4c(NCCC)ncnc43)[C@H](O)[C@@H]2O)[C@@H](O)[C@H]1O` (mixture of isomers) [Compound 14, P^1,P^4-di-(N^6-propyl-5′-adenosine) P^1,P^4-dithio-P^2,P^3-chloromethylenetetraphosphate] the IC50 [1, 7] was 3930 nM, the IC50 [1, 8] was 12000 nM and the IC50 [1, 9] was 22400 nM. For the same molecule, the activation at 1 µM (platelet P2X1 receptors [2]; read-out: P2X1 activation %±SEM) was -0.01 ± 0.91%.

`Nc1ncnc2c1ncn2[C@@H]1O[C@H](COP(=O)(S)OP(=O)(O)C(Cl)P(=O)(O)OP(=O)(S)OC[C@H]2O[C@@H](n3cnc4c(N)ncnc43)[C@H](O)[C@@H]2O)[C@@H](O)[C@H]1O` (mixture of isomers) [Compound 1, reference compound] gave an IC50 [1, 7] of 437 nM, an IC50 [1, 8] of 757 nM and an IC50 [1, 9] of 7680 nM.

For `Nc1ncnc2c1ncn2[C@@H]1O[C@H](COP(=O)(O)OP(=O)(O)OP(=O)(O)OP(=O)(O)OC[C@H]2O[C@@H](n3cnc4c(N)ncnc43)[C@H](O)[C@@H]2O)[C@@H](O)[C@H]1O` [Ap4A, P^1,P^4-Di(adenosine-5′) tetraphosphate], the IC50 [4] is given as 32500 nM, the “P2Y12 antagonist character” value [5] is given as “partial antagonist” and the IC50 ([5]; read-out: P2Y12 inhibition IC50) is given as > 250000 nM. The “P2X1 agonist activity” value (platelet P2X1 receptors [6]) was “effective P2X1 receptor agonist”.

In the case of `Nc1nc(I)nc2c1ncn2[C@@H]1O[C@H](COP(=O)(S)OP(=O)(O)C(Cl)P(=O)(O)OP(=O)(S)OC[C@H]2O[C@@H](n3cnc4c(N)nc(I)nc43)[C@H](O)[C@@H]2O)[C@@H](O)[C@H]1O` (mixture of isomers) [Compound 12, P^1,P^4-di-(2-iodo-5′-adenosine) P^1,P^4-dithio-P^2,P^3-chloromethylenetetra-phosphate], the IC50 [1, 7] is reported as 49.9 nM, the IC50 [1, 8] is reported as 48.5 nM and the IC50 [1, 9] is reported as 416 nM.

`CSc1nc(N)c2ncn([C@@H]3O[C@H](COP(=O)([O-])OP(=O)([O-])OP(=O)([O-])OP(=O)([O-])OC[C@H]4O[C@@H](n5cnc6c(N)nc(SC)nc65)[C@H](O)[C@@H]4O)[C@@H](O)[C@H]3O)c2n1.[Na+].[Na+].[Na+].[Na+]` [Compound 2, P^1,P^4-di-(2-Methylthio-5′-adenosine) tetraphosphate] gave an IC50 [1, 7] of 71.3 nM, an IC50 [1, 8] of 1020 nM and an IC50 [1, 9] of 3950 nM. The “P2Y12 antagonist character” value [3] was “full antagonist”.
